Measured values from US20250009727A1, “WATER-SOLUBLE SALTS OF DNA BINDING AGENTS” (BOARD OF REGENTS, THE UNIVERSITY OF TEXAS SYSTEM, priority 2021, published 2025).

Key:
CNS uptake of WP1244 = conditions: in vivo
[1] = tested on: orthotopic U87 model of GBM; assay: In vivo efficacy in orthotopic U87 GBM model; conditions: nude athymic mice, intracranial U87; three doses at 1 and 5 mg/kg IP from day 10
Experimental: FIG. 2—In vivo efficacy of WP1244 in orthotopic U87 GBM model. Eighteen nude athymic mice were implanted intracranially with 0.5 mln U87 GBM cells. Animals were randomized into three experimental groups (n=6). The treatment was initiated on day 10 and consisted of three doses ow WP1244 at 1 and 5 mg/kg given IP.

ependymoma cell lines = assay: In vitro cytotoxicity in ependymoma cell lines; type: cell-based
Text: (§1) FIG. 3—In vitro efficacy of WP1874 in ependymoma, normal kidney, glioblastoma, and medulloblastoma cell lines.

[2] = Solubility in water and 5% dextrose at room temperature; type: physicochemical
Experimental: To improve solubility and develop IV injectable formulation, different salts of WP1244 were prepared.

[3] = tested on: glioblastoma multiforme (GBM) cell lines; assay: In vitro cytotoxicity in glioblastoma multiforme (GBM) cell lines; type: cell-based
Text: as §1

With COc1cccc2c1C(=O)c1c(O)c3c(c(O)c1C2=O)C[C@](O)(C(C)=O)C[C@H]3OC1CC(NCc2ccc(NC(=O)c3cc(NC(=O)c4cc(NC(=O)c5ccccn5)cn4C)cn3C)cc2)C(O)C(C)O1 (stereo partly shown) [WP1244] the CNS uptake (CNS uptake of WP1244) was “especially high CNS uptake”, the “In vivo activity in orthotopic U87 GBM model” value [1] was “demonstrated in vivo activity” and the Cytotoxicity (ependymoma cell lines) was “picomolar to low nanomolar”. For the same compound, the “Solubility in 5% Dextrose” value ([2]; 5% dextrose, room temperature) was “Lower than 0.25 mg/mL”, the “Solubility (in words)” value ([2]; salt forms compared for IV injectable formulation) was “poor solubility” and the “Solubility in H2O” value ([2]; water, room temperature) was “Lower than 0.25 mg/mL”. The Cytotoxicity [3] was “picomolar to low nanomolar”.
